Results on twelve compounds are retold here after US20240425483A1, “INDOLINES AS PROTAC COMPOUNDS” (NeoPhore Limited, priority 2021, published 2024).

The term remaining activity denotes what remains of the control signal, in per cent. Low readings indicate a large loss of activity, high ones a small loss of activity.

The target in the assay is T1, PMS2 protein (Homo sapiens, UniProt P54278).
T1 construct: host or cells: SW620 human colorectal carcinoma cells
T1 sequence (P54278 1-862): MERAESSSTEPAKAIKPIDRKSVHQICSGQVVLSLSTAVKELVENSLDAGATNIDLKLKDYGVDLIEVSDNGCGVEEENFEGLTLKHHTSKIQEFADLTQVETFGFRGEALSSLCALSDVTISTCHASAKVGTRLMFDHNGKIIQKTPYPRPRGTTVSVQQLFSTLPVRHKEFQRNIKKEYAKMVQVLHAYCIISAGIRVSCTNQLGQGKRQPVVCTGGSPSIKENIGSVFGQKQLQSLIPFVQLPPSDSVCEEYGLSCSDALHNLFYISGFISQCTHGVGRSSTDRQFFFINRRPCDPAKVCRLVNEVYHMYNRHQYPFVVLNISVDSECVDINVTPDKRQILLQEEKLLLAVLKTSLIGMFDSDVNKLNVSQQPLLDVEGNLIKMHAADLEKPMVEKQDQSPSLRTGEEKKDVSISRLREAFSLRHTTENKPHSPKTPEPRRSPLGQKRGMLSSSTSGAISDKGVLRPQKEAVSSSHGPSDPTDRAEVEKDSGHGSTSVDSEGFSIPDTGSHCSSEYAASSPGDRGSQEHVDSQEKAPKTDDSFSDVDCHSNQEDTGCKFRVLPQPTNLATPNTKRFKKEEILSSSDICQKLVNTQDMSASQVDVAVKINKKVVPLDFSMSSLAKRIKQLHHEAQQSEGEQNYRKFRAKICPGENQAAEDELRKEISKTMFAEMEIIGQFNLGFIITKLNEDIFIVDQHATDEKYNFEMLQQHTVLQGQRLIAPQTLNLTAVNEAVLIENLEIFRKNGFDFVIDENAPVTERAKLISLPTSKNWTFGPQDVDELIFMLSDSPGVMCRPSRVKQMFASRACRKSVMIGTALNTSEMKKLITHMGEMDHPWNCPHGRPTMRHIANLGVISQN
Kind of assay: PROTAC screening in SW620 human colorectal carcinoma cells, PMS2 protein level by JESS Western blot. The class given is cell-based. The following applies: SW-620, 24 h, 1 uM compound. The method, then:
PROTAC Screening Protocol Using SW620 Human Colorectal Carcinoma Cells
SVW620 cells (ATCC/[…]) were cultured in T75 Falcon flasks in culture media (F12/DMEM 1:1 media, 10% FCS, +L-G supplement). Cells were split twice a week, for a maximum of 6 weeks. Media was aspirated, and cells washed with 10 mL of sterile PBS. PBS was aspirated, and cells incubated with 1.5 mL TrypLE for up to 5 minutes at 37° C., 5% CO2. Once cells had detached, TrypLE was neutralised with 10 mL culture media and cells mixed 1:1 with Trypan blue and quantified using a Luna cell counter. Cells were then seeded into fresh T75 flasks with 1×10^6 cells and 10 mL culture media.
SW620 cells, cultured and counted as above, were used to seed 12 well plates at a density of 1.5×10^5 cells/well and incubated overnight at 37° C., 5% CO2. Test compounds were solubilized in DMSO to a stock concentration of 10 mM and serially diluted in DMSO and media to their test concentration; the final concentration of DMSO was 0.1% (v/v). Each concentration was tested in triplicate. SW620 cells were incubated with test compound for 24 hours at 37° C., 5% CO2. Media was aspirated from each well, and each well washed with 1 mL ice cold PBS. PBS was then aspirated, and 50 μL of cold lysis buffer (RIPA buffer supplemented with 1× protease inhibitors, Benzonase, MgCl) was added to each well; plates were then incubated on ice for 5 minutes. Cells were scraped using a pipette tip before being transferred to a fresh Eppendorf. Samples were spun at maximum speed in a benchtop centrifuge for 5 minutes at 4° C. and supernatant was then transferred to fresh tubes. Samples were stored at −80° C. until analysis.
Bicinchonininic acid (BCA) protein assay standards (2-0.125 mg/mL BSA) were prepared in advance. 6 μL of each standard was pipetted in duplicate into rows A and B of a 384-well assay plate. Test samples were diluted in lysis buffer (1:3-1:10) in a 384-well plate in duplicate. BCA Reagents were combined 50:1, Part A:Part B and 50 μL added to each well. Plates were incubated for 30 min at 37° C. in a plate incubator and read using a BCA protein 384 protocol on an EnSpire plate reader. Protein concentrations were calculated from a standard curve.
JESS Western Blot Protocol
Protein lysates were prepared using Protein Simple EZ standard pack reagents: 40 μL distilled H2O was added to a DTT tube (clear) and treated with 20 μL 10× sample buffer and 20 μL DTT to 5×MM tube (pink). 20 μL dH2O was added to biotinylated ladder tube (green).
Test samples were prepared by dilution to the required concentration (0.1 mg/mL) in 0.1× sample buffer. 1.25 μL 5× fluorescent master mix from the EZ standard pack was added to 5 μL sample for each lane to be loaded (e.g. 2.5 μL+10 μL if loading same sample into 2 wells). Samples were vortexed, briefly spun down and heated at 95° C. for 5 min in a PCR machine then vortexed again and briefly spun down before loading onto JESS cassettes (catalogue No: SM-W004) according to manufacturer's instructions (https://www.proteinsimple.com/technical_library.html?product=simplewestern&def_list=list). Protein expression was determined by the peak area of the target protein signal. Peak area of the target protein was normalised to peak area of the loading control (actin) and to DMSO control.
On the technique in general: A western blot detects proteins with antibodies after separation by electrophoresis.

Setting [1] is: normalised to actin and DMSO control, Table A1.

Each structure is given as a SMILES string.

As for `Cc1c(O)cc(O)c(C(=O)N2Cc3ccc(CN4CCN(CCOCCOCCOCCOCCOc5cccc6c5C(=O)N(C5CCC(=O)NC5=O)C6=O)CC4)cc3C2)c1OCc1ccccc1` (stereo not shown) [Example 11, 4-((14-(4-((2-(2-(Benzyloxy)-4,6-dihydroxy-3-methylbenzoyl)isoindolin-5-yl)methyl)piperazin-1-yl)-3,6,9,12-tetraoxatetradecyl)oxy)-2-(2,6-dioxopiperidin-3-yl)isoindoline-1,3-dione], the remaining activity at 1 µM under setting [1] fell in the range of 10 to 25%.

With `Cc1c(O)cc(O)c(C(=O)N2Cc3ccc(C(=O)N4CCC(CN5CCN(c6ccc7c(c6)CN(C6CCC(=O)NC6=O)C7=O)CC5)CC4)cc3C2)c1OCc1ccccc1` (stereo not shown) [Example 22, 3-(5-(4-((1-(2-(2-(Benzyloxy)-4,6-dihydroxy-3-methylbenzoyl)isoindoline-5-carbonyl)piperidin-4-yl)methyl)piperazin-1-yl)-1-oxoisoindolin-2-yl)piperidine-2,6-dione], under setting [1], the remaining activity at 1 µM is 10 to 25%.

Under setting [1], `Cc1ncsc1-c1ccc(CNC(=O)[C@@H]2C[C@@H](O)CN2C(=O)[C@@H](NC(=O)CCCCCCCCCC(=O)N2CCN(Cc3ccc4c(c3)CN(C(=O)c3c(O)cc(O)c(C)c3OCc3ccccc3)C4)CC2)C(C)(C)C)cc1` [Example 24, (2S,4R)-1-((S)-2-(11-(4-((2-(2-(Benzyloxy)-4,6-dihydroxy-3-methylbenzoyl)isoindolin-5-yl)methyl)piperazin-1-yl)-11-oxoundecanamino)-3,3-dimethylbutanoyl)-4-hydroxy-N-(4-(4-methylthiazol-5-yl)benzyl) pyrrolidine-2-carboxamide] returned a remaining activity at 1 µM of under 10%.

For `Cc1c(O)cc(O)c(C(=O)N2Cc3ccc(CN4CCN(CCOCCOCCOCCNc5ccc6c(c5)CN(C5CCC(=O)NC5=O)C6=O)CC4)cc3C2)c1OCc1ccccc1` (stereo not shown) [Example 16, 3-(5-((2-(2-(2-(2-(4-((2-(2-(Benzyloxy)-4,6-dihydroxy-3-methylbenzoyl)isoindolin-5-yl)methyl)piperazin-1-yl)ethoxy)ethoxy)ethoxy)ethyl)amino)-1-oxoisoindolin-2-yl)piperidine-2,6-dione], the remaining activity at 1 µM under setting [1] lay in the range of 25 to 50%.

Under setting [1], `Cc1c(O)cc(O)c(C(=O)N2Cc3ccc(CN4CCN(CCOCCOCCOCCOCCOCCNc5cccc6c5C(=O)N(C5CCC(=O)NC5=O)C6=O)CC4)cc3C2)c1OCc1ccccc1` (stereo not shown) [Example 4, 4-((17-(4-((2-(2-(Benzyloxy)-4,6-dihydroxy-3-methylbenzoyl)isoindolin-5-yl)methyl)piperazin-1-yl)-3,6,9,12,15-pentaoxaheptadecyl)amino)-2-(2,6-dioxopiperidin-3-yl)isoindoline-1,3-dione] had a remaining activity at 1 µM of under 10%.

Under setting [1], `Cc1c(O)cc(O)c(C(=O)N2Cc3ccc(CN4CCN(CCOCCOCCOCCNc5cccc6c5CN(C5CCC(=O)NC5=O)C6=O)CC4)cc3C2)c1OCc1ccccc1` (stereo not shown) [Example 15, 3-(4-((2-(2-(2-(2-(4-((2-(2-(Benzyloxy)-4,6-dihydroxy-3-methylbenzoyl)isoindolin-5-yl)methyl)piperazin-1-yl)ethoxy)ethoxy)ethoxy)ethyl)amino)-1-oxoisoindolin-2-yl)piperidine-2,6-dione] returned a remaining activity at 1 µM of 10 to 25%.

With `Cc1c(O)cc(O)c(C(=O)N2Cc3ccc(CN4CCN(CCOCCOCCNc5cccc6c5C(=O)N(C5CCC(=O)NC5=O)C6=O)CC4)cc3C2)c1OCc1ccccc1` (stereo not shown) [Example 2, 4-((2-(2-(2-(4-((2-(2-(Benzyloxy)-4,6-dihydroxy-3-methylbenzoyl)isoindolin-5-yl)methyl)piperazin-1-yl)ethoxy)ethoxy)ethyl)amino)-2-(2,6-dioxopiperidin-3-yl)isoindoline-1,3-dione], the remaining activity at 1 µM fell in the range of 25 to 50% under setting [1] and 10 to 25% (upon further testing, Table A2).

Compound `Cc1ncsc1-c1ccc(CNC(=O)[C@@H]2C[C@@H](O)CN2C(=O)[C@@H](NC(=O)CCCCCC(=O)N2CCN(Cc3ccc4c(c3)CN(C(=O)c3c(O)cc(O)c(C)c3OCC3CCCCC3)C4)CC2)C(C)(C)C)cc1` [Example 26, (2S,4R)-1-[(2S)-2-[[7-[4-[[2-[2-(Cyclohexylmethoxy)-4,6-dihydroxy-3-methyl-benzoyl]isoindolin-5-yl]methyl]piperazin-1-yl]-7-oxo-heptanoyl]amino]-3,3-dimethyl-butanoyl]-4-hydroxy-N-[[4-(4-methylthiazol-5-yl)phenyl]methyl]pyrrolidine-2-carboxamide] returned a remaining activity at 1 µM under setting [1] of under 10%.

Compound `Cc1c(O)cc(O)c(C(=O)N2Cc3ccc(CN4CCN(CCOCCOCCOCCOc5cccc6c5CN(C5CCC(=O)NC5=O)C6=O)CC4)cc3C2)c1OCc1ccccc1` (stereo not shown) [Example 14, 3-(4-(2-(2-(2-(2-(4-((2-(2-(Benzyloxy)-4,6-dihydroxy-3-methylbenzoyl)isoindolin-5-yl)methyl)piperazin-1-yl)ethoxy)ethoxy)ethoxy)ethoxy)-1-oxoisoindolin-2-yl)piperidine-2,6-dione] came in with a remaining activity at 1 µM under setting [1] of 10 to 25%.

Under setting [1], `Cc1c(O)cc(O)c(C(=O)N2Cc3ccc(CN4CCN(CCOCCOCCOCCOc5cccc6c5C(=O)N(C5CCC(=O)NC5=O)C6=O)CC4)cc3C2)c1OCc1ccccc1` (stereo not shown) [Example 9, 4-(2-(2-(2-(2-(4-((2-(2-(Benzyloxy)-4,6-dihydroxy-3-methylbenzoyl)isoindolin-5-yl)methyl)piperazin-1-yl)ethoxy)ethoxy)ethoxy)ethoxy)-2-(2,6-dioxopiperidin-3-yl)isoindoline-1,3-dione] had a remaining activity at 1 µM of 10 to 25%.

Turning to `Cc1c(O)cc(O)c(C(=O)N2Cc3ccc(CN4CCN(CCOCCOCCOCCNc5cccc6c5C(=O)N(C5CCC(=O)NC5=O)C6=O)CC4)cc3C2)c1OCc1ccccc1` (stereo not shown) [Example 1, 4-((2-(2-(2-(2-(4-((2-(2-(Benzyloxy)-4,6-dihydroxy-3-methylbenzoyl)isoindolin-5-yl)methyl)piperazin-1-yl)ethoxy)ethoxy)ethoxy)ethyl)amino)-2-(2,6-dioxopiperidin-3-yl)isoindoline-1,3-dione], the remaining activity at 1 µM under setting [1] fell in the range of 10 to 25%.

`Cc1c(O)cc(O)c(C(=O)N2Cc3ccc(CN4CCN(CCOCCOCCOCCOCCNc5ccc6c(c5)C(=O)N(C5CCC(=O)NC5=O)C6=O)CC4)cc3C2)c1OCc1ccccc1` (stereo not shown) [Example 19, 5-[2-[2-[2-[2-[2-[4-[[2-(2-Benzyloxy-4,6-dihydroxy-3-methyl-benzoyl)isoindolin-5-yl]methyl]piperazin-1-yl]ethoxy]ethoxy]ethoxy]ethoxy]ethylamino]-2-(2,6-dioxo-3-piperidyl)isoindoline-1,3-dione] showed a remaining activity at 1 µM under setting [1] of under 10%.
